In ChEMBL document CHEMBL4476885, “Multisubstituted 4h-thiazolo[4,5-e][1,4]diazepine-5,8-dione derivative and use thereof” (2017):

System: Mus musculus
Assay: Antiinflammatory activity in iv dosed ICR mouse model of CLP-induced sepsis assessed as increase in survival rate
Type: functional

Molecule `O=C1C2CCCN2C(=O)c2sc(N3CCCCC3)nc2N1Cc1ccccc1` (stereo not drawn) has an Activity of 40%.
`COc1ccc(CNc2nc3c(s2)C(=O)N2CCCC2C(=O)N3)cc1` (stereo not drawn) was tested, and the Activity was 40%.
`COc1ccc(CNc2nc3c(s2)C(=O)N(C)CC(=O)N3Cc2ccccc2)cc1` gave an Activity of 40%.
Work on `CN1C(=O)C2CCCCN2C(=O)c2sc(Sc3ccccc3)nc21` (stereo not drawn) yielded an Activity of 60%.
`O=C1Nc2nc(N3CCOCC3)sc2C(=O)N2CCCC12` (stereo not drawn) showed an Activity of 40%.
With `CCN1C(=O)C2CCCN2C(=O)c2sc(NCc3ccc(OC)cc3)nc21` (stereo not drawn) the Activity was 40%.
Work on `CCCCNc1nc2c(s1)C(=O)N(Cc1ccccc1)CC(=O)N2` yielded an Activity of 40%.
Molecule `CCCSc1nc2c(s1)C(=O)N1CCCCC1C(=O)N2` (stereo not drawn) has an Activity of 40%.
